This note sets out measurements from patent US20220227762A1, “AMIDE-SUBSTITUTED IMIDAZO COMPOUNDS AS SELECTIVE INHIBITORS OF INDOLEAMINE 2,3-DIOXYGENASES” (BEIGENE, LTD., priority 2019, published 2022).

For the experiment, the target named is T1, IDO1 (Homo sapiens, UniProt P14902).
T1 construct: endogenous in cells; host or cells: HeLa cells (American Type Culture Collection), induced with human recombinant IFN-γ
In words: HeLa Cell-Based IDO1 Kyn (Kynurenine) Production Assay. The conditions noted are these: HeLa cells, IDO1 induced by IFN-γ, 0.4 mM L-Trp, 48 hours incubation, Kyn absorbance at 480 nm; read-out: Cell-Based EC50 (nM) Hela IDO1. The procedure: HeLa Cell-Based IDO1 Kyn (Kynurenine) Production Assay:
The inhibitory activity of IDO1 inhibitors is determined by using a colorimetric reaction to measure Kyn generated from L-Trp (L-Tryptophon) oxidation by cellular IDO1 in HeLa cells after induction of IDO1 expression by IFN-γ. Hela cells were obtained from the American Type Culture Collection and recovered in 10% FBS-containing phenol red-free DMEM medium. Cells were plated onto a 96-well plate (100 μl/well) at 8000 cells per well and kept at 37° C. in a humidified incubator supplied with 5% CO2. 4 hours later, Human recombinant IFN-γ (8901SC, CST) was added to cells (final concentration 100 ng/mL) to stimulate endogenous IDO1. Compounds at different concentrations diluted in dimethylsulfoxide (DMSO) were added simultaneously with IFN-γ and 0.4 mM L-Trp. Cells were kept at 37° C. in a humidified incubator supplied with 5% CO2. After 48 hours of incubation, 100 μl supernatant from each well was removed to a new plate. The protein in the medium was precipitated with the addition of 8 μl 6N trichloroacetic acid. The plate was incubated at 60° C. for 30 minutes and then centrifugation at 2500 rpm for 10 minutes to remove sediments. 80 μl supernatants were carefully removed to a new clean plate and added with an equal volume of 2% 4-(Dimethylamino)benzaldehyde (D2004, Sigma) dissolved in glacial acetic acid. The absorbance at 480 nm wavelength derived from Kyn was measured using a PHERAstar FS plate reader (BMG LABTECH). The IC50 for each compound was derived from fitting the dose-response data to the four-parameter logistic model by using XLfit software (IDBS).

Some results are limits rather than exact numbers.

T1 sequence (P14902 whole entry): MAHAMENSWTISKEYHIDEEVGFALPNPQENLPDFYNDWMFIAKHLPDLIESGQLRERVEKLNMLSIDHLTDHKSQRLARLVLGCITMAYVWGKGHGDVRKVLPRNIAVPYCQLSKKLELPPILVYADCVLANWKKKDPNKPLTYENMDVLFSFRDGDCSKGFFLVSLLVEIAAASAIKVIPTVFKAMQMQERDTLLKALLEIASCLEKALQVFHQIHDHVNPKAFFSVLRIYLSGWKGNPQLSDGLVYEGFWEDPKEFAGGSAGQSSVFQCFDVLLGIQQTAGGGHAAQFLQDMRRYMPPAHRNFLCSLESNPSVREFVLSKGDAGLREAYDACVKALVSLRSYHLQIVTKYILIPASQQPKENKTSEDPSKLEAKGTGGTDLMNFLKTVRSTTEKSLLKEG

On to `CC(c1nc2cnc(C(=O)NC3CC3)cc2[nH]1)[C@H]1CC[C@@H](c2ccnc3ccc(F)cc32)CC1` (mixture of isomers) [Example 22, N-cyclopropyl-2-(1-((1s,4s)-4-(6-fluoroquinolin-4-yl)cyclohexyl)ethyl)-1H-imidazo[4,5-c]pyridine-6-carboxamide], for which the EC50 is 3.12 nM.

In the case of `CNC(=O)c1cc2[nH]c(C(C)[C@H]3CC[C@@H](c4ccnc5ccc(F)cc54)CC3)nc2cn1` (mixture of isomers) [Example 23, 2-(1-((1s,4s)-4-(6-fluoroquinolin-4-yl)cyclohexyl)ethyl)-N-methyl-1H-imidazo[4,5-c]pyridine-6-carboxamide], the EC50 was 7.12 nM.

On to `CNC(=O)c1ccc2[nH]c(C(C)[C@H]3CC[C@@H](c4ccnc5ccc(F)cc54)CC3)nc2c1` (stereo partly drawn) [Example 1, 2-(1-((1s,4s)-4-(6-fluoroquinolin-4-yl)cyclohexyl)ethyl)-N-methyl-1H-benzo[d]imidazole-5-carboxamide], for which the EC50 came out at 64.1 nM. As for `CC(C)NC(=O)c1ccc2nc([C@H](C)[C@H]3CC[C@@H](c4ccnc5ccc(F)cc54)CC3)[nH]c2c1` [Example 2, 2-((R)-1-((1s,4S)-4-(6-fluoroquinolin-4-yl)cyclohexyl)ethyl)-N-isopropyl-1H-benzo[d]imidazole-6-carboxamide], the EC50 came to 50.6 nM. Consider `C[C@@H](c1nc2ccc(C(=O)NC(C)(C)C)cc2[nH]1)[C@H]1CC[C@@H](c2ccnc3ccc(F)cc32)CC1` [Example 3, N-(tert-butyl)-2-((R)-1-((1s,4S)-4-(6-fluoroquinolin-4-yl)cyclohexyl)ethyl)-1H-benzo[d]imidazole-6-carboxamide], for which the EC50 was found to be 74.5 nM. To `C[C@@H](c1nc2ccc(C(=O)NC3CCCC3)cc2[nH]1)[C@H]1CC[C@@H](c2ccnc3ccc(F)cc32)CC1` [Example 5, N-cyclopentyl-2-((R)-1-((1s,4S)-4-(6-fluoroquinolin-4-yl)cyclohexyl)ethyl)-1H-benzo[d]imidazole-6-carboxamide] belongs 38.8 nM. Take `C[C@@H](c1nc2ccc(C(=O)NC3CCCCC3)cc2[nH]1)[C@H]1CC[C@@H](c2ccnc3ccc(F)cc32)CC1` [Example 6, N-cyclohexyl-2-((R)-1-((1s,4S)-4-(6-fluoroquinolin-4-yl)cyclohexyl)ethyl)-1H-benzo[d]imidazole-6-carboxamide]: the EC50 is 40.2 nM. To `CONC(=O)c1ccc2nc(C(C)[C@H]3CC[C@@H](c4ccnc5ccc(F)cc54)CC3)[nH]c2c1` (stereo partly drawn) [Example 7, 2-(1-((1s,4s)-4-(6-fluoroquinolin-4-yl)cyclohexyl)ethyl)-N-methoxy-1H-benzo[d]imidazole-6-carboxamide] belongs 470 nM. For `CC(c1nc2cc(C(=O)N(C)C)ccc2[nH]1)[C@H]1CC[C@@H](c2ccnc3ccc(F)cc32)CC1` (stereo partly drawn) [Example 8, 2-(1-((1s,4s)-4-(6-fluoroquinolin-4-yl)cyclohexyl)ethyl)-N,N-dimethyl-1H-benzo[d]imidazole-5-carboxamide], the EC50 stood at 46.1 nM. As for `C[C@@H](c1nc2ccc(C(=O)NC3CC3)cc2[nH]1)[C@H]1CC[C@@H](c2ccnc3ccc(F)cc32)CC1` [Example 9, N-cyclopropyl-2-((R)-1-((1s,4S)-4-(6-fluoroquinolin-4-yl)cyclohexyl)ethyl)-1H-benzo[d]imidazole-6-carboxamide], the EC50 was 12.6 nM. Turning to `Cc1cc(C(=O)NC2CCC2)cc2nc(C(C)[C@H]3CC[C@@H](c4ccnc5ccc(F)cc54)CC3)[nH]c12` (stereo partly drawn) [Example 10, N-cyclobutyl-2-(1-((1s,4s)-4-(6-fluoroquinolin-4-yl)cyclohexyl)ethyl)-7-methyl-1H-benzo[d]imidazole-5-carboxamide], the EC50 turned out to be 27.1 nM.

On to `Cc1cc(C(=O)NC2CCC2)cc2nc([C@@H](C)[C@H]3CC[C@@H](c4ccnc5ccc(F)cc54)CC3)[nH]c12` [Example 10a, N-cyclobutyl-2-((R)-1-((1s,4S)-4-(6-fluoroquinolin-4-yl)cyclohexyl)ethyl)-7-methyl-1H-benzo[d]imidazole-5-carboxamide], for which the EC50 amounted to 788 nM. The result for `Cc1cc(C(=O)NC2CCC2)cc2nc([C@H](C)[C@H]3CC[C@@H](c4ccnc5ccc(F)cc54)CC3)[nH]c12` [Example 10b, N-cyclobutyl-2-((S)-1-((1s,4R)-4-(6-fluoroquinolin-4 yl)cyclohexyl)ethyl)-7-methyl-1H-benzo[d]imidazole-5-carboxamide] reads 17.1 nM; that for `CC(c1nc2ccc(C(=O)NC3COC3)cc2[nH]1)C1CCC(c2ccnc3ccc(F)cc23)CC1` (stereo not drawn) [Example 11, 2-(1-(4-(6-fluoroquinolin-4-yl)cyclohexyl)ethyl)-N-(oxetan-3-yl)-1H-benzo[d]imidazole-6-carboxamide], 84.1 nM.

`COCCNC(=O)c1ccc2nc([C@H](C)[C@H]3CC[C@H](c4ccnc5ccc(F)cc54)CC3)[nH]c2c1` [Example 12, 2-((R)-1-((1r,4R)-4-(6-fluoroquinolin-4-yl)cyclohexyl)ethyl)-N-(2-methoxyethyl)-1H-benzo[d]imidazole-6-carboxamide]: the EC50 was 959 nM. To `COCCNC(=O)c1ccc2nc([C@H](C)[C@H]3CC[C@@H](c4ccnc5ccc(F)cc54)CC3)[nH]c2c1` [Example 13, 2-((R)-1-((1s,4S)-4-(6-fluoroquinolin-4-yl)cyclohexyl)ethyl)-N-(2-methoxyethyl)-1H-benzo[d]imidazole-6-carboxamide] belongs 62.9 nM. To `C[C@@H](c1nc2ccc(C(=O)Nc3ccccc3)cc2[nH]1)[C@H]1CC[C@@H](c2ccnc3ccc(F)cc32)CC1` [Example 14, 2-((R)-1-((1s,4S)-4-(6-fluoroquinolin-4-yl)cyclohexyl)ethyl)-N phenyl-1H-benzo[d]imidazole-6-carboxamide] belongs 14.4 nM; to `C[C@@H](c1nc2ccc(C(=O)Nc3ccccc3)cc2[nH]1)[C@H]1CC[C@H](c2ccnc3ccc(F)cc32)CC1` [Example 15, 2-((R)-1-((1r,4R)-4-(6-fluoroquinolin-4-yl)cyclohexyl)ethyl)-N-phenyl-1H-benzo[d]imidazole-6-carboxamide], 86.7 nM. The result for `C[C@@H](c1nc2ccc(C(=O)NCC3(O)CCC3)cc2[nH]1)[C@H]1CC[C@@H](c2ccnc3ccc(F)cc32)CC1` [Example 16, 2-((R)-1-((1s,4S)-4-(6-fluoroquinolin-4-yl)cyclohexyl)ethyl)-N-((1-hydroxycyclobutyl)methyl)-1H-benzo[d]imidazole-6-carboxamide] reads more than 1000 nM; that for `C[C@@H](c1nc2ccc(C(=O)NCC3(O)CCC3)cc2[nH]1)[C@H]1CC[C@H](c2ccnc3ccc(F)cc32)CC1` [Example 17, 2-((R)-1-((1 r,4R)-4-(6-fluoroquinolin-4-yl)cyclohexyl)ethyl)-N-((1-hydroxycyclobutyl)methyl)-1H-benzo[d]imidazole-6-carboxamide], more than 1000 nM; that for `COC1CCC(NC(=O)c2ccc3nc([C@H](C)[C@H]4CC[C@@H](c5ccnc6ccc(F)cc65)CC4)[nH]c3c2)CC1` (stereo partly drawn) [Example 18, 2-((R)-1-((1s,4S)-4-(6-fluoroquinolin-4-yl)cyclohexyl)ethyl)-N-(4-methoxycyclohexyl)-1H-benzo[d]imidazole-6-carboxamide], 122 nM.

In general, EC50 refers to the concentration that produces a half-maximal response.
